Laboratory results published in patent publication US6555563B1, “Heteroaryl substituted amidinyl and imidazolyl compounds and methods employing same for the treatment of inflammation” (Medinox, Inc., priority 2001, dated 2003).

How the values were obtained:
COX-1 = target: T1, COX-1 (Ovis aries, UniProt P05979); test: Assay for COX-1 activity (Ovine), PGE2 formation by ELISA; format: biochemical; settings: for inhibition at 0.01 µM: read-out: COX-1 10 nM (% inhibition); for inhibition at 0.01 µM / COX-1 10 nM (% inhibition): 10 nM compound; for IC50: first number of cell COX1/COX2; for inhibition at 0.05 µM: read-out: COX-1 50 nM (% inhibition); for inhibition at 0.05 µM / COX-1 50 nM (% inhibition): 50 nM compound
T1 construct: host or cells: insect cells (membranes, CHAPS-solubilized)
T1 sequence (P05979 25-600): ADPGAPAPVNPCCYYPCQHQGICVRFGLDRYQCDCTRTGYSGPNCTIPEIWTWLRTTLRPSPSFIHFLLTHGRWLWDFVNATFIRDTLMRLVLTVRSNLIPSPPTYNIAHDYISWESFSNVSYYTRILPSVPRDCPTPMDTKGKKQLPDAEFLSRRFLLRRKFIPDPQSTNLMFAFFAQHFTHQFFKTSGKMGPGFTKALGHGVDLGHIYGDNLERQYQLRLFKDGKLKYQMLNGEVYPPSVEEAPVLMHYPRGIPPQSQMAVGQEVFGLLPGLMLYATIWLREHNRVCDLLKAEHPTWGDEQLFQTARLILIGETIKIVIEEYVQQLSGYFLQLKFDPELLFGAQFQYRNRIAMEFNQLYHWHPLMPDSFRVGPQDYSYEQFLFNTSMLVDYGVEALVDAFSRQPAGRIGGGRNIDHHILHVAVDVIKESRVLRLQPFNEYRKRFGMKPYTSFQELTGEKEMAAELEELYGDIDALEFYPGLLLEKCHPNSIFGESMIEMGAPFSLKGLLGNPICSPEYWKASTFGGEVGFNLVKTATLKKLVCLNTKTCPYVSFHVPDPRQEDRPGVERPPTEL
Experimental: (§1) COX activity was assayed as PGE2 formed/μg protein/time using ELISA to detect prostaglandin release. CHAPS-solubilized insect cell membranes containing the appropriate COX enzyme were incubated in a potassium phosphate buffer (50 mM, pH 8.0) containing Tris-HCl, EDTA, phenol, and heme with the addition of arachidonic acid (10 μM). Compounds were pre-incubated with the enzyme for 5-10 minutes prior to the addition of arachidonic acid. Any reaction between the arachidonic acid and the enzyme was stopped after two minutes at 37° C. The PGE2 formed was measured by standard ELISA technology (Cayman Chemical).

COX-2 = target: T2, COX-2 (Ovis aries, UniProt P79208); test: Assay for COX-2 activity (Ovine), PGE2 formation by ELISA; format: biochemical; settings: for COX-2 10 nM (% inhibition) / inhibition at 0.01 µM: 10 nM compound; for Selectivity: IC50 COX1 / IC50 COX2; for IC50: second number of cell COX1/COX2; for inhibition at 0.01 µM: read-out: COX-2 10 nM (% inhibition); for inhibition at 0.05 µM: read-out: COX-2 50 nM (% inhibition); for inhibition at 0.05 µM / COX-2 50 nM (% inhibition): 50 nM compound
T2 construct: host or cells: insect cells (membranes, CHAPS-solubilized)
T2 sequence (P79208 17-603): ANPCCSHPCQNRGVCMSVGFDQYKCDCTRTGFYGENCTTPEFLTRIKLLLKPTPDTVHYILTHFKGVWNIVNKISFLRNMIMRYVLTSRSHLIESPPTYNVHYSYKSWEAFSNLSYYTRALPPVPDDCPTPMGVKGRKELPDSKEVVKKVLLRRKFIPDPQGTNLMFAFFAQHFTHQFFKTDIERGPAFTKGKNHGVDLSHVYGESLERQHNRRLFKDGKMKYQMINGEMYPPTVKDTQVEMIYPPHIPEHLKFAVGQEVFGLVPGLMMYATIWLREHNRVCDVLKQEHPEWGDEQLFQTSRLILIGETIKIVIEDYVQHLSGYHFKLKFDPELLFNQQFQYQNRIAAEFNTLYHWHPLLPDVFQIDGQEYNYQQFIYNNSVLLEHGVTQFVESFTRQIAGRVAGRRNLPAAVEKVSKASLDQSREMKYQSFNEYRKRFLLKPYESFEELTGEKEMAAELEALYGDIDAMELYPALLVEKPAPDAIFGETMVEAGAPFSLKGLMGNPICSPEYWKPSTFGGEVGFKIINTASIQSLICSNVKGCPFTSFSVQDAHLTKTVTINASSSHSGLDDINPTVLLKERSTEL
Experimental: as §1

[1] = tested on: adjuvant-induced arthritis in rats; test: Adjuvant-induced arthritis rat model, inhibition of paw swelling; format: in vivo, Male Lewis rats; settings: oral, daily, days 8-15; paw volume day 15
[2] = Pharmacokinetics after oral administration in rats; format: in vivo, Male Sprague Dawley rats; settings: rat
Experimental: The animals are housed, fed and cared for according to the Guidelines of the […] Council on Animal Care. Male Sprague Dawley rats (250-300 g) are fasted overnight prior to each PO blood level study. The rats are placed in the restrainer one at a time and the box firmly secured. Compounds are prepared as required, in a standard dosing volume of 500 μL/250 g, and administered orally by passing a 16 gauge, 3″ gavaging needle into the stomach. Rats are catheterized at the carotid at least one day before drug administration and flushed with 30% PVP (400 U/mL of heparin) to prevent clotting in the tip. 250 μL blood samples are collected by unhooking the flush syringe and letting the blood flow freely in centrifuge tube at predetermined time points. The tubes should be centrifuged at 13,000 rpm for 10 min at 4° C. The plasma samples are collected in microcentrifuge tubes and stored immediately at −20° C. until analysis or analyzed immediately. Typical time points for determination of rat blood levels after PO dosing are: 30 min, 1 h, 3 h, 5 h, 7 h, 23 h, 25 h, 28 h, 31 h. A 100 μL aliquot of plasma sample is mixed with 150 μL of acetonitrile. After vortex and centrifuge, 200 μL of the supernatant is dried up under Speed Vac. The residue is reconstituted with 100 μL of methanol. After vortex and centrifuge again, 25 μL of supernatant is analyzed by C-18 HPLC column using UV detector. Quantitation is done relative to a clean blood sample spiked with a known quantity of drug.

| inhibition at 0.01 µM (COX-1) [%] | COX-1 10 nM (% inhibition) (COX-1) [%] | IC50 (COX-1) [nM] | COX-2 10 nM (% inhibition) (COX-2) [%] | Selectivity (COX-2) | IC50 (COX-2) [nM] | inhibition at 0.05 µM (COX-1) [%] | inhibition at 0.01 µM (COX-2) [%] | inhibition at 0.05 µM (COX-2) [%] | selectivity for the inhibition of COX-2 over COX-1 (in words) (COX-2) | half-life compared with Celecoxib (in words) [2] | pharmacology (pharmacokinetic) profile (in words) [2] | COX-1 50 nM (% inhibition) (COX-1) [%] | COX-2 50 nM (% inhibition) (COX-2) [%] | Molecule | potency in controlling inflammation (in words) [1] |
| --- | --- | --- | --- | --- | --- | --- | --- | --- | --- | --- | --- | --- | --- | --- | --- |
| 2 | – | – | – | – | – | – | – | – | – | – | – | – | – | Cc1onc(-c2ccccc2)c1-c1ccc(S(N)(=O)=O)cc1 [Valdecoxib, reference compound] | – |
| – | 31 | 62 | 98 | 12 | 5.1 | – | – | – | – | – | – | – | – | CS(=O)(=O)c1ccc(-n2cc(C(F)(F)F)nc2-c2nnc(Nc3ccccc3)s2)cc1 [Example 52, 1-[4-(Methylsulfonyl)phenyl]-2-[2-(N-anilino)-1,3,4-thiadiazol-5-yl]-4-(trifluoromethyl)-1H-imidazole] | – |
| 30 | – | 27 | – | 12 | 2.3 | 45 | 95 | 100 | – | – | – | – | – | CS(=O)(=O)c1ccc(-n2cc(C(F)(F)F)nc2-c2nnc(-c3ccccc3)s2)cc1 [Example 44, 1-[4-(Methylsulfonyl)phenyl]-2-(2-phenyl-1,3,4-thiadiazol-5-yl)-4-(trifluoromethyl)-1H-imidazole] | – |
| 10 | – | 36 | – | 90 | 0.4 | 25 | 84 | 100 | good selectivity | longer half-life | excellent pharmacology profile | – | – | NS(=O)(=O)c1ccc(-n2cc(C(F)(F)F)nc2-c2nnc(-c3ccccc3)s2)cc1 [Example 48, 1-[4-(Aminosulfonyl)phenyl]-2-[2-(phenyl)-1,3,4-thiadiazol-5-yl]-4-(trifluoromethyl)-1H-imidazole] | good potency in controlling inflamation |
| – | 23 | 36 | 84 | 11 | 3.3 | – | – | – | – | longer half-life | – | 52 | 100 | N-[4-(Aminosulfonyl)phenyl]-3-[2-(4-fluorophenyl)-1,3,4-thiadiazol-5-yl]carboximidamide [Example 33] | – |
| – | 15 | 79 | 85 | 17 | 4.8 | – | – | – | – | longer half-life | – | 45 | 94 | N=C(Nc1ccc(S(N)(=O)=O)cc1)c1nnc(-c2ccccc2)s1 [Example 32, N-[4-(Aminosulfonyl)phenyl]-3-[2-(phenyl)-1,3,4-thiadiazol-5-yl]carboximidamide] | – |
